Data taken from ChEMBL document CHEMBL5252574, “α-Synuclein Aggregation Inhibitory Procerolides and Diphenylalkanes from the Ascidian Polycarpa procera” (J Nat Prod, 2023).
Activity calls are given as the source filed them. The rule behind the calls is not given here.

Tests used:
[1] = tested on: Staphylococcus aureus; assay: Antibacterial activity against methicillin-susceptible Staphylococcus aureus ATCC 25923 incubated for 18 hrs by microdilution method; type: functional, organism-based
[2] = tested on: Staphylococcus aureus; assay: Antibacterial activity against methicillin- resistant Staphylococcus aureus ATCC 43300 incubated for 18 hrs by microdilution method; type: functional, organism-based
[3] = tested on: Pseudomonas aeruginosa; assay: Antibacterial activity against Pseudomonas aeruginosa ATCC 27853 incubated for 18 hrs by microdilution method; type: functional, organism-based
[4] = target: Alpha-synuclein (Homo sapiens) (UniProt P37840); assay: Inhibition of human alpha-syn expressed in Escherichia coli BL21 (DE3) cells aggregation incubated for 36 hrs by ThT dye based fluorescence assay

COC1=C(c2cc(Br)c(O)c(Br)c2)[C@H](Cc2cc(Br)c(OC)c(Br)c2)OC1=O
Activity [1]: inactive | Activity [2]: inactive | Activity [3]: inactive

CCOC(=O)C1(Cc2ccc(OC)cc2)OC(=O)C(O)=C1c1ccc(OC)cc1 (configuration not stated)
inhibition [4]: inactive

COc1ccc(C[C@H](O)C(=O)c2cc(Br)c(O)c(Br)c2)cc1Br
Activity [1]: inactive | Activity [2]: inactive | Activity [3]: inactive

CCOC(=O)C1(Cc2ccccc2)OC(=O)C(O)=C1c1ccccc1 (configuration not stated)
inhibition [4]: inactive

CCOC(=O)C1(Cc2cccc(OC)c2)OC(=O)C(O)=C1c1cccc(OC)c1 (configuration not stated)
inhibition [4]: inactive

CCOC(=O)C1(Cc2ccc(OC)cc2)OC(=O)C(O)=C1c1ccccc1 (configuration not stated)
inhibition [4]: inactive

CCOC(=O)C1(Cc2ccc(Cl)cc2)OC(=O)C(O)=C1c1ccc(Cl)cc1 (configuration not stated)
inhibition [4]: inactive

COC1=C(c2cc(Br)c(O)c(Br)c2)[C@H](Cc2ccc(OC)c(Br)c2)OC1=O
Activity [1]: inactive | Activity [2]: inactive | Activity [3]: inactive

CCOC(=O)C1(Cc2ccccc2)OC(=O)C(O)=C1c1ccc(OC)cc1 (configuration not stated)
inhibition [4]: inactive

CCOC(=O)C1(Cc2ccc(C)cc2)OC(=O)C(O)=C1c1ccc(C)cc1 (configuration not stated)
inhibition [4]: inactive

CCCC(C)CC1(C(=O)OCC)OC(=O)C(O)=C1c1ccc(OC)cc1 (configuration not stated)
inhibition [4]: inactive
